Assay results published in patent US7238697B2, “Pyridylpyrimidines for use as pesticides” (Bayer CropScience AG, priority 2001, dated 2007).

Assay: log P determination by HPLC (reversed-phase C18), EEC Directive 79/831 Annex V.A8
Assay type: physicochemical
Settings: pH 2.3
Protocol: The stated log P values were determined in accordance with EEC Directive 79/831 Annex V.A8 by HPLC (High Performance Liquid Chromatography) using a reversed-phase column, (C 18). Temperature: 43° C. Mobile phases for the determination in the acidic range: 0.1% aqueous phosphoric acid, acetonitrile; linear gradient from 10% acetonitrile to 90% acetonitrile. Calibration was carried out using unbranched alkan-2-ones (having 3 to 16 carbon atoms) with known logP values (determination of the logP values by the retention times using linear interpolation between two successive alkanones).

`NC(=O)OCCOC(=O)CSc1nccc(-c2ccccn2)n1` [Example 177] showed a chromatographic logP of 1.41.

Same assay, conditions: reversed-phase C18 HPLC column; pH 2.3; HPLC, reversed-phase C 18, 43° C., 0.1% aqueous phosphoric acid/acetonitrile; read-out: log P (pH 2.3)

Going from `COCNC(=O)OCCOC(=O)CSc1nccc(-c2ccccn2)n1` [Example 175] to `CC(C)NC(=O)OCCOC(=O)CSc1nccc(-c2ccccn2)n1` [Example 245], the chromatographic logP rises from 1.64 to 2.19.

Compared with `Cc1cnn(CCOC(=O)CSc2nccc(-c3ccccn3)n2)n1` [Example 176], `O=C(CSc1nccc(-c2ccccn2)n1)OCCn1cncn1` [Example 209] is lower in chromatographic logP: 1.93 for the first, 1.32 for the second.

Compared with `CN(C)C(=O)SCCOC(=O)CSc1nccc(-c2ccccn2)n1` [Example 178], `CN(C=O)CCOC(=O)CSc1nccc(-c2ccccn2)n1` [Example 217] is lower in chromatographic logP: 2.2 for the first, 1.4 for the second.

First: COC(C)(C)COC(=O)CSc1nccc(-c2ccccn2)n1 [Example 179]
Second: COCC(C)(C)COC(=O)CSc1nccc(-c2ccccn2)n1 [Example 190]
The chromatographic logP of the first is lower: 2.29 for the first, 3.05 for the second.

Going from `CSCC(C)(C)COC(=O)CSc1nccc(-c2ccccn2)n1` [Example 186] to `CC(C)(F)COC(=O)CSc1nccc(-c2ccccn2)n1` [Example 196], the chromatographic logP falls from 3.46 to 2.66.

Going from `CC(=O)NCC(C)OC(=O)CSc1nccc(-c2ccccn2)n1` (centres unmarked) [Example 188] to `CC(C)OC(=O)C(C)OC(=O)CSc1nccc(-c2ccccn2)n1` (centres unmarked) [Example 194], the chromatographic logP rises from 1.97 to 2.95.

`CC(C)/C=N/CCOC(=O)CSc1nccc(-c2ccccn2)n1` [Example 191] and `C/C=N/OCCOC(=O)CSc1nccc(-c2ccccn2)n1` [Example 214] are within 0.2 log units of each other in chromatographic logP: 2.02 for the first, 2.13 for the second.

`O=C(CSc1nccc(-c2ccccn2)n1)OCC1COC(=O)O1` (centres unmarked) [Example 192] and `O=C(CSc1nccc(-c2ccccn2)n1)OCC1CCC(=O)O1` (centres unmarked) [Example 206] are within 0.2 log units of each other in chromatographic logP: 1.63 for the first, 1.64 for the second.

`CC1(C)OCC(CCOC(=O)CSc2nccc(-c3ccccn3)n2)O1` (centres unmarked) [Example 193] and `CC1(CCCOC(=O)CSc2nccc(-c3ccccn3)n2)OCCO1` [Example 303] are within 0.2 log units of each other in chromatographic logP: 2.46 for the first, 2.57 for the second.

First: Cc1scnc1CCOC(=O)CSc1nccc(-c2ccccn2)n1 [Example 197]
Second: Cc1noc(C)c1CCOC(=O)CSc1nccc(-c2ccccn2)n1 [Example 252]
The chromatographic logP of the first is lower: 1.79 for the first, 2.25 for the second.

Going from `CCC1(COC(=O)CSc2nccc(-c3ccccn3)n2)CCO1` (centres unmarked) [Example 198] to `CCC1(COC(=O)CSc2nccc(-c3ccccn3)n2)COCOC1` [Example 222], the chromatographic logP rises from 2.2 to 2.51.

Compared with `CCOC(=O)C1CC1COC(=O)CSc1nccc(-c2ccccn2)n1` (centres unmarked) [Example 199], `COCN(C)C(=O)COC(=O)CSc1nccc(-c2ccccn2)n1` [Example 230] is lower in chromatographic logP: 2.64 for the first, 1.96 for the second.

Going from `COC(=O)CCCOC(=O)CSc1nccc(-c2ccccn2)n1` [Example 200] to `CNC(=O)NCCCOC(=O)CSc1nccc(-c2ccccn2)n1` [Example 213], the chromatographic logP falls from 2.21 to 1.42.

Going from `Cn1ccnc1COC(=O)CSc1nccc(-c2ccccn2)n1` [Example 201] to `O=C(CSc1nccc(-c2ccccn2)n1)OCCn1ccnn1` [Example 210], the chromatographic logP rises from 1.02 to 1.42.

Going from `CSC(C)COC(=O)CSc1nccc(-c2ccccn2)n1` (centres unmarked) [Example 203] to `CC(C)(C)C(Cl)COC(=O)CSc1nccc(-c2ccccn2)n1` (centres unmarked) [Example 205], the chromatographic logP rises from 2.78 to 3.81.

First: O=C(CSc1nccc(-c2ccccn2)n1)OCCc1ccncc1 [Example 204]
Second: O=C(CSc1nccc(-c2ccccn2)n1)OCCc1noc(=O)[nH]1 [Example 250]
The chromatographic logP of the first is lower: 1.2 for the first, 1.97 for the second.

Compared with `O=C(CSc1nccc(-c2ccccn2)n1)OCC#CCCl` [Example 207], `O=C(CSc1nccc(-c2ccccn2)n1)OCC(F)=C(Cl)Cl` [Example 253] is higher in chromatographic logP: 2.61 for the first, 3.19 for the second.

Going from `CC(C)(C)C1(COC(=O)CSc2nccc(-c3ccccn3)n2)COC1` [Example 211] to `O=C(CSc1nccc(-c2ccccn2)n1)OC1COC1` [Example 249], the chromatographic logP falls from 2.75 to 1.69.

Going from `CO/N=C/C(C)OC(=O)CSc1nccc(-c2ccccn2)n1` (centres unmarked) [Example 212] to `CC(C=C(Cl)Cl)OC(=O)CSc1nccc(-c2ccccn2)n1` (centres unmarked) [Example 215], the chromatographic logP rises from 2.13 to 3.48.

`CCC(=O)NCCCOC(=O)CSc1nccc(-c2ccccn2)n1` [Example 216] and `CCNC(=O)COC(=O)CSc1nccc(-c2ccccn2)n1` [Example 231] are within 0.2 log units of each other in chromatographic logP: 2.04 for the first, 1.97 for the second.

Compared with `CN1CCC(COC(=O)CSc2nccc(-c3ccccn3)n2)O1` (centres unmarked) [Example 220], `CON(C)C(=O)COC(=O)CSc1nccc(-c2ccccn2)n1` [Example 234] is higher in chromatographic logP: 1.12 for the first, 1.97 for the second.

Compared with `O=C(CSc1nccc(-c2ccccn2)n1)OC1CC(F)(F)C1(F)F` (centres unmarked) [Example 221], `O=C(CSc1nccc(-c2ccccn2)n1)OCCOCC(F)(F)F` [Example 236] is lower in chromatographic logP: 3 for the first, 2.7 for the second.

First: C=CC(=O)OCCCOC(=O)CSc1nccc(-c2ccccn2)n1 [Example 224]
Second: CCOC(=O)C(OC(=O)CSc1nccc(-c2ccccn2)n1)C(C)C (centres unmarked) [Example 243]
The chromatographic logP of the first is lower: 2.49 for the first, 3.2 for the second.

`CC(=O)OC(C)C(C)OC(=O)CSc1nccc(-c2ccccn2)n1` (centres unmarked) [Example 246] and `CC(=O)O[C@H]1CCC[C@H]1OC(=O)CSc1nccc(-c2ccccn2)n1` [Example 248] are within 0.2 log units of each other in chromatographic logP: 2.54 for the first, 2.65 for the second.

Going from `CCOC(=O)CSc1nccc(-c2ccc(CC)cn2)n1` [Example 254] to `CCOC(=O)CSc1nccc(-c2ccc(Cl)cn2)n1` [Example 256], the chromatographic logP rises from 2.98 to 3.23.

Going from `CCOC(=O)CSc1nccc(-c2ccc(C(F)(F)F)cn2)n1` [Example 257] to `CCOC(=O)CSc1nccc(-c2ncccc2C(F)(F)F)n1` [Example 269], the chromatographic logP falls from 3.48 to 2.53.

First: CCOC(=O)CSc1nccc(-c2cc(CC)ccn2)n1 [Example 259]
Second: CCOC(=O)CSc1nccc(-c2cc(OC)ccn2)n1 [Example 261]
The chromatographic logP of the first is higher: 2.69 for the first, 1.62 for the second.

First: CCOC(=O)CSc1nccc(-c2cc(-c3ccccc3)ccn2)n1 [Example 262]
Second: CCOC(=O)CSc1nccc(-c2nccc3ccccc23)n1 [Example 298]
The chromatographic logP of the first is higher: 3.54 for the first, 2.51 for the second.

`CCOC(=O)CSc1nccc(-c2ncccc2C)n1` [Example 265] and `CCOC(=O)CSc1nccc(-c2ncccc2F)n1` [Example 281] are within 0.2 log units of each other in chromatographic logP: 1.85 for the first, 2.04 for the second.

First: CCOC(=O)CSc1nccc(-c2ncccc2CC)n1 [Example 266]
Second: CCOC(=O)CSc1nccc(-c2ncccc2OC)n1 [Example 268]
The chromatographic logP of the first is higher: 2.22 for the first, 1.34 for the second.

Going from `CCOC(=O)CSc1ncc(C)c(-c2ccccn2)n1` [Example 271] to `CCOC(=O)CSc1nccc(-c2ccc3ccccc3n2)n1` [Example 296], the chromatographic logP rises from 2.18 to 3.49.

Compared with `c1ccc(-c2ccnc(SCc3nn[nH]n3)n2)nc1` [Example 299], `Cn1nnc(CSc2nccc(-c3ccccn3)n2)n1` [Example 300] is higher in chromatographic logP: 1.17 for the first, 1.59 for the second.

Compared with `Cn1nnnc1CSc1nccc(-c2ccccn2)n1` [Example 301], `CC(C)(C)n1nnc(CSc2nccc(-c3ccccn3)n2)n1` [Example 302] is higher in chromatographic logP: 1.24 for the first, 2.69 for the second.

`CCOC(=O)c1cc(NC(=O)NCCCOC(=O)CSc2nccc(-c3ccccn3)n2)ccc1Cl` [Example 304] showed a chromatographic logP of 5.37.
